# Reference: the supplement of paper PMC10307832
# Tests used:
# Assay in all cases: relative viability (nuclei count vs DMSO), 5 days (fraction); higher = more cells survive
# [1] = compound: OCc1c[nH]c2ccccc12 [Indole-3-carbinol] + CC1(C)CCC(c2ccc(Cl)cc2)=C(CN2CCN(c3ccc(C(=O)NS(=O)(=O)c4ccc(N[C@H](CCN5CCOCC5)CSc5ccccc5)c(S(=O)(=O)C(F)(F)F)c4)cc3)CC2)C1 [Navitoclax] (partner 0.5 µM)
# Method in brief: (§1)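 Lung cancer cell lines in 1536-well plates were dosed by pin tool the day after seeding, either with one drug alone or with a fixed anchor-drug dose plus five library-drug doses (not always all listed) in √10 steps. After 5 days, cells were fixed and their nuclei stained in one step (final 0.05% Triton X-100, 1% formaldehyde, 1 ug/ml Hoechst), then counted on 4× images. Relative viability is the nuclei count in treated wells divided by that in vehicle wells. Values are medians of duplicate plates.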
# [2] = compound: OCc1c[nH]c2ccccc12 [Indole-3-carbinol] + Nc1ncn([C@H]2C[C@H](O)[C@@H](CO)O2)c(=O)n1 [Decitabine] (partner 2 µM)
# Method in brief: as §1
# [3] = compound: OCc1c[nH]c2ccccc12 [Indole-3-carbinol] + COc1cc2c(Oc3ccc(NC(=O)C4(C(=O)Nc5ccc(F)cc5)CC4)cc3F)ccnc2cc1OCCCN1CCOCC1 [Foretinib] (partner 0.25 µM)
# Method in brief: as §1
# [4] = compound: OCc1c[nH]c2ccccc12 [Indole-3-carbinol] + Cc1nc(Nc2ncc(C(=O)Nc3c(C)cccc3Cl)s2)cc(N2CCN(CCO)CC2)n1 [Dasatinib] (partner 0.075 µM)
# Method in brief: as §1
# [5] = compound: OCc1c[nH]c2ccccc12 [Indole-3-carbinol] + Cc1cc(Nc2cc(N3CCN(C)CC3)nc(Sc3ccc(NC(=O)C4CC4)cc3)n2)n[nH]1 [Tozasertib] (partner 0.1 µM)
# Method in brief: as §1
Cell Line,relative viability ([1]; first compound 0.253 µM),relative viability ([1]; first compound 0.8 µM),relative viability ([1]; first compound 2.53 µM),relative viability ([1]; first compound 8 µM),relative viability ([2]; first compound 0.253 µM),relative viability ([2]; first compound 0.8 µM),relative viability ([2]; first compound 2.53 µM),relative viability ([2]; first compound 8 µM),relative viability ([3]; first compound 0.253 µM),relative viability ([3]; first compound 0.8 µM),relative viability ([3]; first compound 2.53 µM),relative viability ([3]; first compound 8 µM),relative viability ([4]; first compound 0.253 µM),relative viability ([4]; first compound 0.8 µM),relative viability ([4]; first compound 2.53 µM),relative viability ([4]; first compound 8 µM),relative viability ([5]; first compound 0.253 µM),relative viability ([5]; first compound 0.8 µM),relative viability ([5]; first compound 2.53 µM),relative viability ([5]; first compound 8 µM)
201T,1.22,1.15,1.18,1.2,0.819,0.834,0.885,0.844,1.1,1.07,1.04,1.01,0.556,0.635,0.566,0.554,0.958,0.978,1.02,0.969
A549,1.16,1.29,1.22,1.17,0.271,0.287,0.272,0.235,0.968,1.04,0.911,0.965,,,,,,,,
A-427,0.963,1.05,0.97,0.947,0.53,0.542,0.607,0.547,0.941,1.14,1.01,0.94,0.676,0.768,0.742,0.564,0.193,0.226,0.226,0.224
ABC-1,,,,,0.993,1.14,1.12,1.24,0.903,0.961,1.13,1,0.47,0.596,0.456,0.591,0.186,0.214,0.164,0.158
BEN,0.0839,0.0691,0.0796,0.048,0.689,0.784,0.726,0.749,0.566,0.501,0.651,0.624,0.334,0.351,0.318,0.294,0.463,,0.479,0.554
CAL-12T,1.21,1.48,1.16,0.993,,,,,1.13,1.17,1.01,1.09,0.385,0.53,0.536,0.366,0.291,0.351,0.335,0.278
COR-L23,1.17,1.07,0.976,0.797,0.428,0.465,0.414,0.385,0.992,0.977,1.1,0.951,0.505,0.571,0.586,0.542,0.201,0.243,0.296,0.185
COR-L 105,0.718,0.701,0.821,0.631,0.607,0.598,0.631,0.626,1.22,0.838,0.963,1.03,0.368,0.337,0.396,0.301,0.366,0.385,0.378,0.347
ChaGo-K-1,0.805,0.962,0.913,0.966,0.523,0.55,0.525,0.519,0.955,0.941,0.872,0.894,0.583,0.568,0.709,0.604,0.218,0.219,0.231,0.211
EKVX,1.13,1.01,0.983,0.873,0.326,0.353,0.326,0.381,0.859,0.97,0.844,0.829,0.564,0.54,0.535,0.67,0.423,0.428,0.421,0.383
EMC-BAC-2,1.16,1.21,1.11,1.04,0.953,0.96,0.957,0.889,1.02,1.01,0.917,0.923,0.329,0.307,0.337,0.312,0.267,0.309,0.25,0.259
EPLC-272H,1.32,1.08,1.26,0.988,0.364,0.359,0.388,0.356,0.67,0.72,0.724,0.709,0.44,0.406,0.403,0.387,0.33,0.267,0.369,0.396
H3255,0.643,0.523,0.54,0.467,0.658,0.561,0.517,0.68,0.985,0.669,1.09,0.917,0.346,0.456,0.338,0.321,0.691,0.599,0.635,0.58
HARA,1.18,1.17,1.14,1.16,0.566,0.549,0.637,0.47,0.777,0.932,1.09,0.809,0.289,0.296,0.323,0.198,0.119,0.125,0.12,0.179
HCC-15,0.692,0.722,0.66,0.71,0.66,0.682,0.64,0.664,1.04,1.14,1.07,1.01,0.615,0.745,0.611,0.607,0.348,0.52,0.495,0.398
HCC-44,1.05,0.986,0.941,0.859,0.983,0.986,0.971,0.91,,,,,,,,,0.97,0.575,1.11,0.922
HCC-78,0.925,0.553,0.776,0.719,0.681,0.715,0.676,0.741,0.558,0.526,0.592,0.523,0.335,0.436,0.392,0.535,0.301,0.454,0.569,0.415
HCC-366,1.03,1.02,0.986,0.948,0.384,0.335,0.369,0.335,0.959,0.861,0.902,0.926,0.626,0.721,0.724,0.601,0.103,0.125,0.0939,0.196
HCC-827,1.04,1.09,1.05,0.947,0.379,0.337,0.312,0.34,1.07,1.02,1.03,1.1,0.338,0.315,0.316,0.357,0.4,0.398,0.429,0.383

Cell Line,relative viability ([1]; first compound 0.253 µM),relative viability ([1]; first compound 0.8 µM),relative viability ([1]; first compound 2.53 µM),relative viability ([1]; first compound 8 µM),relative viability ([2]; first compound 0.253 µM),relative viability ([2]; first compound 0.8 µM),relative viability ([2]; first compound 2.53 µM),relative viability ([2]; first compound 8 µM),relative viability ([3]; first compound 0.253 µM),relative viability ([3]; first compound 0.8 µM),relative viability ([3]; first compound 2.53 µM),relative viability ([3]; first compound 8 µM),relative viability ([4]; first compound 0.253 µM),relative viability ([4]; first compound 0.8 µM),relative viability ([4]; first compound 2.53 µM),relative viability ([4]; first compound 8 µM),relative viability ([5]; first compound 0.253 µM),relative viability ([5]; first compound 0.8 µM),relative viability ([5]; first compound 2.53 µM),relative viability ([5]; first compound 8 µM)
HOP-62,1.09,0.817,1.28,0.851,0.187,0.218,0.228,0.196,1.12,1.23,1.16,1.05,0.701,0.693,0.719,0.651,0.365,0.432,0.391,0.332
IA-LM,0.811,0.896,0.858,0.732,,,,,1.07,1.37,1.11,1.09,,,,,,,,
LC-2-ad,0.644,0.553,0.376,0.399,0.715,0.883,0.71,0.774,0.921,0.852,1.05,0.889,0.657,0.735,0.589,0.595,0.404,0.417,0.537,0.468
LCLC-97TM1,0.408,0.387,0.499,0.465,0.259,0.249,0.199,0.223,0.982,0.973,1.03,0.983,0.835,0.949,0.944,0.908,0.324,0.299,0.235,0.251
LCLC-103H,,,,,0.789,0.675,0.668,0.623,0.691,0.783,0.669,0.639,0.416,0.489,0.428,0.441,0.499,0.554,0.538,0.433
LK-2,0.777,0.769,1.1,0.821,0.308,0.231,0.374,0.327,1.39,1.2,1.42,1.07,0.262,0.297,0.299,0.273,0.162,0.167,0.194,0.17
LOU-NH91,0.71,0.599,0.673,0.74,0.827,0.781,0.818,0.831,0.927,0.964,0.963,0.924,0.621,0.573,0.585,0.535,0.65,0.693,0.749,0.634
LU99A,0.802,0.847,0.832,0.73,0.833,0.862,0.944,0.938,0.828,0.87,0.769,0.777,0.504,0.587,0.515,0.485,0.224,0.317,0.315,0.257
NCI-H358,,,,,0.204,0.207,0.304,0.207,0.805,0.69,0.73,0.73,0.146,0.204,0.172,0.189,0.097,0.131,0.113,0.0974
NCI-H522,,,,,0.698,0.699,0.803,0.689,,,,,0.806,0.961,0.818,0.796,0.63,0.525,0.567,0.538
NCI-H650,,,,,0.354,0.323,0.344,0.338,1.05,1.02,1.04,0.953,0.472,0.488,0.444,0.447,0.743,0.767,0.805,0.681
NCI-H661,,,,,0.551,0.547,0.563,0.547,1.02,1.04,1.03,1.01,0.961,0.827,0.819,0.917,0.335,0.334,0.359,0.348
NCI-H1563,,,,,,,,,0.865,0.799,0.914,0.859,0.471,0.428,0.429,0.479,,,,
NCI-H1703,1.01,1.48,1.47,1.18,,,,,0.342,0.376,0.309,0.326,,,,,,,,
NCI-H1792,0.655,0.619,0.737,0.644,0.569,0.603,0.506,0.489,,,,,0.823,1.05,0.845,0.737,,,,
NCI-H2228,0.845,1.06,0.91,0.674,,,,,0.945,0.897,0.984,0.935,0.501,0.637,0.595,0.562,0.208,0.303,0.254,0.265
NCI-H2342,,,,,0.822,0.743,0.765,0.765,1.12,1.04,1.06,0.999,0.355,0.323,0.317,0.285,0.516,0.575,0.453,0.405
SW 900,,,,,0.418,0.376,0.483,0.405,0.796,1.05,0.877,0.819,0.837,0.79,0.438,0.586,0.548,0.726,0.616,0.548
